Assay results as given in patent US20070105840A1, “Pyrrolo-dihydroisoquinoline derivatives as pde10 inhibitors” (Altana Pharma AG, priority 2003, published 2007).

Row | Compound | melting point [°C]
1 | COC(=O)CCc1c(-c2cc(C)c(O)c(C)c2)c(C#N)c2n1C(C)Cc1cc(OC)c(OC)cc1-2 (stereo not shown) [Example 27, 3-[1-Cyano-2-(4-hydroxy-3,5-dimethyl)-8,9-dimethoxy-5-methyl-5,6-dihydro-pyrrolo[2,1-a]isoquinolin-3-yl]-propionic acid methyl ester] | 208 to 209
2 | COc1cc2c(cc1OC)-c1c(C)c(-c3cc(C)c(O)c(C)c3)c(C)n1CC2 [Example 68, 4-(8,9-Dimethoxy-1,3-dimethyl-5,6-dihydro-pyrrolo[2,1-a]isoquinolin-2-yl)-2,6-dimethyl-phenol] | 183 to 185
3 | COc1cc2c(cc1OC)-c1c(C#N)c(-c3ccc(C(N)=O)cc3)c(C)n1C(C)C2 (stereo not shown) [Example 52, 4-(1-Cyano-8,9-dimethoxy-3,5-dimethyl-5,6-dihydro-pyrrolo[2,1-a]isoquinolin-2-yl)-benzamide] | 228 to 230
4 | CCOC(=O)c1c(-c2ccnc3ccccc23)c(C)n2c1-c1cc(OC)c(OC)cc1C1CCCCC12 (stereo not drawn) [Example 13, (4aRS,8aRS)-cis-10,11-Dimethoxy-3-methyl-2-quinolin-4-yl-4a,5,6,7,8,8a-hexahydro-pyrrolo[2,1-f]phenanthridine-1-carboxylic acid ethyl ester] | 153 to 157
5 | CCOC(=O)c1c(-c2cccc3ccccc23)c(C)n2c1-c1cc(OC)c(OC)cc1C1CCCCC12 (stereo not drawn) [Example 12, (4aRS,8aRS)-cis-10,11-Dimethoxy-3-methyl-2-naphthalen-1-yl-4a,5,6,7,8,8a-hexahydro-pyrrolo[2,1-f]phenanthridine-1-carboxylic acid ethyl ester] | 189 to 191
6 | COc1cc2c(cc1OC)-c1c(C#N)c(-c3ccc(-c4nn[nH]n4)cc3)c(C)n1C(C)C2 (stereo not shown) [Example 57, 8,9-Dimethoxy-3,5-dimethyl-2-[4-(2H-tetrazol-5-yl)-phenyl]-5,6-dihydro-pyrrolo[2,1-a]isoquinoline-1-carbonitrile] | 204 to 207
7 | COc1cc2c(cc1OC)-c1c(C#N)c(-c3cn(S(=O)(=O)N(C)C)c4ccccc34)c(C)n1C(C)C2 (stereo not shown) [Example 54, 3-(1-Cyano-8,9-dimethoxy-3,5-dimethyl-5,6-dihydro-pyrrolo[2,1-a]isoquinolin-2-yl)-indole-1-sulfonic acid dimethylamide] | 236 to 237
8 | COC(=O)CCc1c(-c2ccnc3ccccc23)c(C#N)c2n1CCc1cc(OC)c(OC)cc1-2 [Example 31, 3-(1-Cyano-8,9-dimethoxy-2-quinolin-4-yl-5,6dihydro-pyrrolo[2,1-a]isoquinolin-3-yl)-propionic acid methyl ester] | 232 to 234
9 | CCOC(=O)c1c(-c2cccc3ccccc23)c(CCC(=O)OC)n2c1-c1cc(OC)c(OC)cc1CC2C (racemic) [Example 20, (5RS)-8,9-Dimethoxy-3-(2-methoxycarbonyl-ethyl)-5-methyl-2-naphthalen-1-yl-5,6-dihydro-pyrrolo[2,1-a]isoquinoline-1-carboxylic acid ethyl ester] | 56 to 59
10 | COc1cc2c(cc1OC)-c1c(C#N)c(-c3ccc(N)cc3)c(C)n1C(C)C2 (stereo not shown) [Example 48, 2-(4-Amino-phenyl)-8,9-dimethoxy-3,5-dimethyl-5,6-dihydm-pyrrolo[2,1-a]isoquinoline-1-carbonitrile] | 237 to 239
11 | COc1cc2c(cc1OC)-c1c(C#N)c(-c3c[nH]c4ccccc34)c(C)n1CC2 [Example 24, 2-(1H-indol-3-yl)-8,9-dimethoxy-3-methyl-5,6-dihydro-pyrrolo[2,1-a]isoquinoline-1-carbonitrile] | 304 to 307
12 | CCOc1cc2c(cc1OC)-c1c(C#N)c(-c3ccc(C(=O)O)cc3)c(C)n1C(C)C2 (stereo not shown) [Example 50, 4-(1-Cyano-8-ethoxy-9-methoxy-3,5-dimethyl-5,6-dihydro-pyrrolo[2,1-a]isoquinolin-2-yl)-benzoic acid] | 274 to 277
13 | COc1cc2c(cc1OC)-c1c(C#N)c(-c3ccc(NS(=O)(=O)N4CCOCC4)cc3)c(C)n1C(C)C2 (stereo not shown) [Example 58, Morpholine-4-sulfonic acid [4-(1-cyano-8,9-dimethoxy-3,5-dimethyl-5,6-dihydro-pyrrolo[2,1-a]isoquinolin-2-yl)-phenyl]-amide] | 223 to 225
14 | COc1cc2c(cc1OC)-c1c(C#N)c(-c3cc(C)c(O)c(C)c3)c(C)n1C(C)C2 (stereo not shown) [Example 28, 2-(4-Hydroxy-3,5-dimethyl-phenyl)-8,9-dimethoxy-3,5-dimethy-5,6-dihydro-pyrrolo[2,1-a]isoquinoline-1-carbonitrile] | 268 to 270
15 | COc1cc2c(cc1OC)-c1c(C#N)c(-c3ccncc3C)c(C)n1C(C)C2 (stereo not shown) [Example 49, 8,9-Dimethoxy-3,5-dimethyl-2-(3-methyl-pyridin-4-yl)-5,6-dihydro-pyrrolo[2,1-a]isoquinoline-1-carbonitrile] | 232 to 233
16 | COC(=O)CCc1c(-c2cc(C)c(O)c(C)c2)c(C#N)c2n1CCc1cc(OC)c(OC)cc1-2 [Example 32, 3-[1-Cyano-2-(4-hydroxy-3,5-dimethyl-phenyl)-8,9-dimethoxy-5,6-dihydro-pyrrolo[2,1-a]isoquinolin-3-yl]-propionic acid methyl ester] | 217 to 219

Row | Compound | melting point [°C]
17 | COc1cc2c(cc1OC)-c1c(C#N)c(-c3cccc4ccccc34)c(C)n1CC2 [Example 22, 8,9-Dimethoxy-3-methyl-2-naphthalen-1-yl-5,6-dihydro-pyrrolo[2,1-a]isoquinoline-1-carbonitrile] | 226 to 229
18 | CCOc1cc2c(cc1OC)-c1c(C#N)c(-c3cc(C)c(O)c(C)c3)c(C)n1C(C)C2 (stereo not shown) [Example 53, 8-Ethoxy-2-(4-hydroxy-3,5-dimethyl-phenyl)-9-methoxy-3,5-dimethyl-5,6-dihydro-pyrrolo[2,1-a]isoquinoline-1-carbonitrile] | 232 to 234
19 | COc1cc2c(cc1OC)-c1c(C#N)c(-c3ccc(NS(C)(=O)=O)cc3)c(C)n1C(C)C2 (stereo not shown) [Example 59, N-[4-(1-Cyano-8,9-dimethoxy-3,5-dimethyl-5,6-dihydro-pyrrolo[2,1-a]isoquinolin-2-yl)-phenyl]-methanesulfonamide] | 257 to 259
20 | COc1cc2c(cc1OC)-c1c(C#N)c(-c3ccnc4ccccc34)c(C)n1CC2 [Example 23, 8,9-Dimethoxy-3-methyl-2-quinolin-4yl-5,6-dihydro-pyrrolo[2,1-a]isoquinoline-1-carbonitrile] | 239 to 243
21 | COc1cc2c(cc1OC)-c1c(C#N)c(-c3cc[n+]([O-])cc3)c(C)n1C(C)C2 (stereo not shown) [Example 41, 8,9-Dimethoxy-3,5-dimethyl-2-(1-oxy-pyridin-4-yl)-5,6-dihydro-pyrolo[2,1-a]isoquinoline-1-carbonitrile] | 279 to 282
22 | CCOC(=O)c1c(-c2cccc3ccccc23)c(C)n2c1-c1cc(OC)c(OC)cc1CC2C (racemic) [Example 11, (5RS)-8,9-Dimethoxy-3,5-dimethyl-2-naphthalen-1-yl-5,6-dihydro-pyrrolo[2,1-a]isoquinoline-1-carboxylic acid ethyl ester] | 184
23 | COc1cc2c(cc1OC)-c1c(C#N)c(-c3cn(S(C)(=O)=O)c4ccccc34)c(C)n1C(C)C2 (stereo not shown) [Example 40, 2-(1-Methanesulfonyl-1H-indol-3-yl)-8,9-dimethoxy-3,5-dimethyl-5,6-dihydro-pyrrolo[2,1-a]isoquinoline-1-carbonitrile] | 219 to 221
24 | CCOC(=O)c1c(-c2cc(OC)c(OC)c(OC)c2)c(C)n2c1-c1cc(OC)c(OC)cc1CC2C (racemic) [Example 10, (5RS)-8,9-Dimethoxy-3,5-dimethyl-2-(3,4,5-trimethoxy-phenyl)-5,6-dihydro-pyrrolo[2,1-a]isoquinoline-1-carboxylic acid ethyl ester] | 116 to 118
25 | COc1cc2c(c(F)c1OC)CC(C)n1c(C)c(-c3cc(C)c(O)c(C)c3)c(C#N)c1-2 (stereo not shown) [Example 30, 7-Fluoro-2-(4-hydroxy-3,5-dimethyl-phenyl)-8,9-dimethoxy-3,5-dimethyl-5,6-dihydro-pyrrolo[2,1-a]isoquinoline-1-carbonitrile] | 166 to 168
26 | COc1cc2c(cc1OC)-c1c(C#N)c(-c3ccncc3)c(C)n1C(C)C2 (stereo not shown) [Example 26, 8,9-Dimethoxy-3,5-dimethyl-2-pyridin-4-5,6-dihydro-pyrrolo[2,1-a]isoquinoline-1-carbonitrile] | 253 to 254
27 | COc1cc2c(cc1OC)-c1c(C#N)c(-c3ccc(C(=O)O)cc3)c(C)n1C(C)C2 (stereo not shown) [Example 47, 4-(1-Cyano-8,9-dimethoxy-3,5-dimethyl-5,6-dihydro-pyrrolo[2,1-a]isoquinolin-2-yl)-benzoic acid] | 287 to 289
28 | COc1cc2c(cc1OC)-c1c(C#N)c(-c3ccc(O)cc3C)c(C)n1C(C)C2 (stereo not shown) [Example 51, 2-(4-Hydroxy-2-methyl-phenyl)-8,9-dimethoxy-3,5-dimethyl-5,6-dihydro-pyrrolo[2,1-a]isoquinoline-1-carbonitrile] | 228 to 230
29 | CCOC(=O)c1c(-c2cc(C)c(O)c(C)c2)c(C)n2c1-c1cc(OC)c(OC)cc1CC2C (racemic) [Example 5, (5RS)-(4-Hydroxy-3,5-dimethyl-phenyl)-8,9-dimethoxy-3,5-dimethyl-5,6-dihydro-pyrrolo[2,1-a]isoquinoline-1-carboxylic acid ethyl ester] | 158 to 161
30 | CCOC(=O)c1c(-c2cc(C)c(O)c(C)c2)c(C)n2c1-c1cc(OC)c(OC)c(OC)c1CC2C (stereo not drawn) [Example 18, (5RS)-2-(4-Hydroxy-3,5-dimethyl-phenyl)-7,8,9-bimethoxy-3,5-dimethyl-5,6-dihydro-pyrrolo[2,1-a]isoquinoline-1-carboxylic acid ethyl ester] | 144
31 | CCOC(=O)c1c(-c2cc(C)c(O)c(C)c2)c(C)n2c1-c1cc(OC)c(OC)cc1C1CCCCC12 (stereo not drawn) [Example 8, (4aRS,8aRS)-cis-2-(4-hydroxy-3,5-dimethyl-phenyl)-10,11-dimethoxy-3-methyl-4a,5,6,7,8,8a-hexahydro-pyrrolo[2,1-f]phenanthridine-1-carboxylic acid ethyl ester] | 186 to 192
